# Measurements: patent US20240409585A1, “MACROCYCLIC IMMUNOMODULATORS” (priority 2021, published 2024)
# Bridge positions count the residues as written; N and C are the ends. Square brackets hold non-standard residues; d marks the D form. Peptide text beside a SMILES is read from it. * marks the point of attachment. Phe(3-COOH) = N[C@@H](Cc1cccc(C(=O)O)c1)C(=O)O; Phe(4-COOH) = N[C@@H](Cc1ccc(C(=O)O)cc1)C(=O)O; Phe(4-CH2NH2) = NCc1ccc(C[C@H](N)C(=O)O)cc1; Bip = N[C@@H](Cc1ccc(-c2ccccc2)cc1)C(=O)O; Phe(3-Me) = Cc1cccc(C[C@H](N)C(=O)O)c1; 4Pal = N[C@@H](Cc1ccncc1)C(=O)O; Cha = N[C@@H](CC1CCCCC1)C(=O)O; Hpra = C#CCC[C@H](N)C(=O)O; dDab = NCC[C@@H](N)C(=O)O; Carboxymethyl = O=C(O)C*; NMeA = CN[C@@H](C)C(=O)O; Orn = NCCC[C@H](N)C(=O)O; Dab = NCC[C@H](N)C(=O)O; Dap = NC[C@H](N)C(=O)O; Piv = CC(C)(C)C(=O)*
# Molecular target: T1, PE-labeled human PD-L1-Ig binding to Jurkat cell line over-expressing human PD-1 (Jurkat-PD-1) (Homo sapiens, UniProt Q15116)
# T1 construct: expressed in transfected cells; host or cells: Jurkat
# T1 sequence (Q15116 25-288): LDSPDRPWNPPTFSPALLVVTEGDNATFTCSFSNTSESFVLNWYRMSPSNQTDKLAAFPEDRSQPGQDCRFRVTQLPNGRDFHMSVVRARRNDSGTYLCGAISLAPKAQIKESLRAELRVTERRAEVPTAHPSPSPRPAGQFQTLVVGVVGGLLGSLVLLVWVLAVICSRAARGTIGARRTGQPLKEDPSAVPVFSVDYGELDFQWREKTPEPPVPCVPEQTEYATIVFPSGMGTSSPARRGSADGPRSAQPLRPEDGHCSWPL
# Test: Jurkat-PD-1 Cell Binding High-Content Screening Assay (CBA): Method 1
# Details: Jurkat-hPD-1 cells, PE-labeled PD-L1-Ig 20 nM final; read-out: Jurkat HPDL1 PD1 IC50 (uM) (Method 1)
row,IC50,SMILES
1,0.02 µM,Cc1cccc(C[C@@H]2NC(=O)[C@H](CC(=O)O)NC(=O)[C@H](Cc3ccc(OCC(=O)O)cc3)NC(=O)[C@H](Cc3ccncc3)NC(=O)CSC[C@@H](C(=O)N[C@@H](CCN)C(N)=O)NC(=O)[C@H]([C@@H](C)O)NC(=O)[C@H](C(C)C)NC(=O)[C@H](CC3CCCCC3)NC(=O)[C@H](CCNC(=O)C(C)(C)C)NC(=O)[C@@H](CC(C)C)NC(=O)[C@H](C)N(C)C(=O)[C@H](Cc3ccc(OCC(=O)O)cc3)NC(=O)[C@H](Cc3ccc(-c4ccccc4)cc3)NC(=O)[C@H](Cc3ccc(OCC(=O)O)cc3)NC2=O)c1 [Compound 1865] ({CH2CO}-[4Pal]Y(Carboxymethyl)D[Phe(3-Me)]Y(Carboxymethyl)[Bip]Y(Carboxymethyl)[NMeA][dL][Dab](Piv)[Cha]VTC[Dab]-NH2; thioether N-14)
2,0.05 µM,Cc1cccc(C[C@@H]2NC(=O)[C@H](CC(=O)O)NC(=O)[C@H](Cc3ccc(OCC(=O)O)cc3)NC(=O)[C@H](CN)NC(=O)CSC[C@@H](C(=O)N[C@@H](CCNC(=O)C(C)(C)C)C(N)=O)NC(=O)[C@H]([C@@H](C)O)NC(=O)[C@H](C(C)C)NC(=O)[C@H](CC3CCCCC3)NC(=O)[C@H](CCN)NC(=O)[C@@H](CC(C)C)NC(=O)[C@H](C)N(C)C(=O)[C@H](Cc3ccc(OCC(=O)O)cc3)NC(=O)[C@H](Cc3ccc(-c4ccccc4)cc3)NC(=O)[C@H](Cc3ccc(OCC(=O)O)cc3)NC2=O)c1 [Compound 1866] ({CH2CO}-[Dap]Y(Carboxymethyl)D[Phe(3-Me)]Y(Carboxymethyl)[Bip]Y(Carboxymethyl)[NMeA][dL][Dab][Cha]VTC[Dab](Piv)-NH2; thioether N-14)
3,0.03 µM,Cc1cccc(C[C@@H]2NC(=O)[C@H](CC(=O)O)NC(=O)[C@H](Cc3ccc(OCC(=O)O)cc3)NC(=O)[C@H](Cc3ccncc3)NC(=O)CSC[C@@H](C(=O)N[C@@H](CCNC(=O)C(C)(C)C)C(N)=O)NC(=O)[C@H]([C@@H](C)O)NC(=O)[C@H](C(C)C)NC(=O)[C@H](CC3CCCCC3)NC(=O)[C@H](CCN)NC(=O)[C@@H](CC(C)C)NC(=O)[C@H](C)N(C)C(=O)[C@H](Cc3ccc(OCC(=O)O)cc3)NC(=O)[C@H](Cc3ccc(-c4ccccc4)cc3)NC(=O)[C@H](Cc3ccc(OCC(=O)O)cc3)NC2=O)c1 [Compound 1867] ({CH2CO}-[4Pal]Y(Carboxymethyl)D[Phe(3-Me)]Y(Carboxymethyl)[Bip]Y(Carboxymethyl)[NMeA][dL][Dab][Cha]VTC[Dab](Piv)-NH2; thioether N-14)
4,0.17 µM,Cc1cccc(C[C@@H]2NC(=O)[C@H](CC(=O)O)NC(=O)[C@H](Cc3ccc(OCC(=O)O)cc3)NC(=O)[C@H](CCCNC(=N)N)NC(=O)CSC[C@@H](C(N)=O)NC(=O)[C@H]([C@@H](C)O)NC(=O)[C@H](C(C)C)NC(=O)[C@H](CC3CCCCC3)NC(=O)[C@H](CCN)NC(=O)[C@@H](CC(C)C)NC(=O)[C@H](C)N(C)C(=O)[C@H](CCCN)NC(=O)[C@H](Cc3ccc(-c4ccccc4)cc3)NC(=O)[C@H](Cc3ccc(O)cc3)NC2=O)c1 [Compound 1868] ({CH2CO}-RY(Carboxymethyl)D[Phe(3-Me)]Y[Bip][Orn][NMeA][dL][Dab][Cha]VTC-NH2; thioether N-14)
5,0.05 µM,CC(=O)NCCC[C@@H]1NC(=O)[C@H](Cc2ccc(-c3ccccc3)cc2)NC(=O)[C@H](Cc2ccc(O)cc2)NC(=O)[C@H](Cc2cccc(C)c2)NC(=O)[C@H](CC(=O)O)NC(=O)[C@H](Cc2ccc(OCC(=O)O)cc2)NC(=O)[C@H](CCCNC(=N)N)NC(=O)CSC[C@@H](C(N)=O)NC(=O)[C@H]([C@@H](C)O)NC(=O)[C@H](C(C)C)NC(=O)[C@H](CC2CCCCC2)NC(=O)[C@H](CCN)NC(=O)[C@@H](CC(C)C)NC(=O)[C@H](C)N(C)C1=O [Compound 1869] ({CH2CO}-RY(Carboxymethyl)D[Phe(3-Me)]Y[Bip][Orn](Ac)[NMeA][dL][Dab][Cha]VTC-NH2; thioether N-14)
6,0.01 µM,CCNC(=O)[C@H](CCN)NC(=O)[C@@H]1CSCC(=O)N[C@@H](Cc2ccc(OCC(=O)O)cc2)C(=O)N[C@@H](Cc2ccc(OCC(=O)O)cc2)C(=O)N[C@@H](CC(=O)O)C(=O)N[C@@H](Cc2cccc(C)c2)C(=O)N[C@@H](C(C)C)C(=O)N[C@@H](Cc2ccc(-c3ccccc3)cc2)C(=O)N[C@@H](Cc2ccc(O)cc2)C(=O)N(C)[C@@H](C)C(=O)N[C@H](CC(C)C)C(=O)N[C@@H](CCN)C(=O)N[C@@H](CC2CCCCC2)C(=O)N[C@@H](C(C)C)C(=O)N[C@@H](CCCN)C(=O)N1 [Compound 1870] ({CH2CO}-Y(Carboxymethyl)Y(Carboxymethyl)D[Phe(3-Me)]V[Bip]Y[NMeA][dL][Dab][Cha]V[Orn]C[Dab]-NHEt; thioether N-14)
7,0.02 µM,Cc1cccc(C[C@@H]2NC(=O)[C@H](CC(=O)O)NC(=O)[C@H](Cc3ccc(OCC(=O)O)cc3)NC(=O)[C@H](Cc3ccc(OCC(=O)O)cc3)NC(=O)CSC[C@@H](C(=O)N[C@@H](CCN)C(N)=O)NC(=O)[C@@H](CCN)NC(=O)[C@H](C(C)C)NC(=O)[C@H](CC3CCCCC3)NC(=O)[C@H](CCN)NC(=O)[C@@H](CC(C)C)NC(=O)[C@H](C)N(C)C(=O)[C@H](Cc3ccc(O)cc3)NC(=O)[C@H](Cc3ccc(-c4ccccc4)cc3)NC(=O)[C@H](Cc3ccc(O)cc3)NC2=O)c1 [Compound 1872] ({CH2CO}-Y(Carboxymethyl)Y(Carboxymethyl)D[Phe(3-Me)]Y[Bip]Y[NMeA][dL][Dab][Cha]V[dDab]C[Dab]-NH2; thioether N-14)
8,0.03 µM,Cc1cccc(C[C@@H]2NC(=O)[C@H](CC(=O)O)NC(=O)[C@H](Cc3ccc(OCC(=O)O)cc3)NC(=O)[C@H](CN)NC(=O)CSC[C@@H](C(=O)N[C@@H](CCN)C(N)=O)NC(=O)[C@@H](CCN)NC(=O)[C@H](C(C)C)NC(=O)[C@H](CC3CCCCC3)NC(=O)[C@H](CCN)NC(=O)[C@@H](CC(C)C)NC(=O)[C@H](C)N(C)C(=O)[C@H](Cc3ccc(O)cc3)NC(=O)[C@H](Cc3ccc(-c4ccccc4)cc3)NC(=O)[C@H](Cc3ccc(O)cc3)NC2=O)c1 [Compound 1873] ({CH2CO}-[Dap]Y(Carboxymethyl)D[Phe(3-Me)]Y[Bip]Y[NMeA][dL][Dab][Cha]V[dDab]C[Dab]-NH2; thioether N-14)
9,0.28 µM,Cc1cccc(C[C@@H]2NC(=O)[C@H](CC(=O)O)NC(=O)[C@H](Cc3ccc(OCC(=O)O)cc3)NC(=O)[C@H](CN)NC(=O)CSC[C@@H](C(=O)N[C@@H](CCN)C(N)=O)NC(=O)[C@H](CCCN)NC(=O)[C@H](C(C)C)NC(=O)[C@H](CC(C)C)NC(=O)[C@H](CCN)NC(=O)[C@@H](C)NC(=O)[C@H](C)N(C)C(=O)[C@H](Cc3ccc(O)cc3)NC(=O)[C@H](Cc3ccc(-c4ccccc4)cc3)NC(=O)[C@H](Cc3ccc(O)cc3)NC2=O)c1 [Compound 1874] ({CH2CO}-[Dap]Y(Carboxymethyl)D[Phe(3-Me)]Y[Bip]Y[NMeA][dA][Dab]LV[Orn]C[Dab]-NH2; thioether N-14)
10,0.05 µM,Cc1cccc(C[C@@H]2NC(=O)[C@H](CC(=O)O)NC(=O)[C@H](Cc3ccc(OCC(=O)O)cc3)NC(=O)[C@H](CN)NC(=O)CSC[C@@H](C(=O)N[C@@H](CCN)C(N)=O)NC(=O)[C@H](CCCN)NC(=O)[C@H](C(C)C)NC(=O)[C@H](CC3CCCCC3)NC(=O)[C@H](CCN)NC(=O)[C@@H](C)NC(=O)[C@H](C)N(C)C(=O)[C@H](Cc3ccc(O)cc3)NC(=O)[C@H](Cc3ccc(-c4ccccc4)cc3)NC(=O)[C@H](Cc3ccc(O)cc3)NC2=O)c1 [Compound 1875] ({CH2CO}-[Dap]Y(Carboxymethyl)D[Phe(3-Me)]Y[Bip]Y[NMeA][dA][Dab][Cha]V[Orn]C[Dab]-NH2; thioether N-14)
11,0.34 µM,Cc1cccc(C[C@@H]2NC(=O)[C@H](CC(=O)O)NC(=O)[C@H](Cc3ccc(C(=O)O)cc3)NC(=O)[C@H](Cc3ccc(OCC(=O)O)cc3)NC(=O)CSC[C@@H](C(N)=O)NC(=O)[C@H](CO)NC(=O)[C@H](C(C)C)NC(=O)[C@H](CC(C)C)NC(=O)[C@H](Cc3c[nH]cn3)NC(=O)[C@@H](CC(C)C)NC(=O)[C@H](C)N(C)C(=O)[C@H](C(C)C)NC(=O)[C@H](Cc3ccc(-c4ccccc4)cc3)NC(=O)[C@H](Cc3ccc(CN)cc3)NC2=O)c1 [Compound 1876] ({CH2CO}-Y(Carboxymethyl)[Phe(4-COOH)]D[Phe(3-Me)][Phe(4-CH2NH2)][Bip]V[NMeA][dL]HLVSC-NH2; thioether N-14)
12,0.01 µM,CC(C)C[C@@H]1NC(=O)[C@H](Cc2c[nH]c3ccccc23)NC(=O)[C@H](CC(=O)O)NC(=O)[C@H](Cc2cccc(C(=O)O)c2)NC(=O)[C@H](CN)NC(=O)CSC[C@@H](C(=O)NCC(N)=O)NC(=O)[C@H](CO)NC(=O)[C@H](C(C)C)NC(=O)[C@H](CC2CCCCC2)NC(=O)[C@H](CCN)NC(=O)[C@@H](CC(C)C)NC(=O)[C@H](C)N(C)C(=O)[C@H](C(C)C)NC(=O)[C@H](Cc2ccc(-c3ccccc3)cc2)NC1=O [Compound 1877] ({CH2CO}-[Dap][Phe(3-COOH)]DWL[Bip]V[NMeA][dL][Dab][Cha]VSCG-NH2; thioether N-14)
13,0.01 µM,C#CCC[C@H](NC(=O)[C@H](CCCN)NC(=O)[C@@H]1CSCC(=O)N[C@@H](Cc2ccncc2)C(=O)N[C@@H](Cc2ccc(OCC(=O)O)cc2)C(=O)N[C@@H](CC(=O)O)C(=O)N[C@@H](Cc2cccc(C)c2)C(=O)N[C@@H](C(C)C)C(=O)N[C@@H](Cc2ccc(-c3ccccc3)cc2)C(=O)N[C@@H](C(C)C)C(=O)N(C)[C@@H](C)C(=O)N[C@H](CC(C)C)C(=O)N[C@@H](CCN)C(=O)N[C@@H](CC2CCCCC2)C(=O)N[C@@H](C(C)C)C(=O)N[C@@H]([C@@H](C)O)C(=O)N1)C(N)=O [Compound 1878] ({CH2CO}-[4Pal]Y(Carboxymethyl)D[Phe(3-Me)]V[Bip]V[NMeA][dL][Dab][Cha]VTC[Orn][Hpra]-NH2; thioether N-14)
14,0.01 µM,CC(C)C[C@@H]1NC(=O)[C@H](Cc2c[nH]c3ccccc23)NC(=O)[C@H](CC(=O)O)NC(=O)[C@H](Cc2ccc(C(=O)O)cc2)NC(=O)[C@H](Cc2cccc(C(=O)O)c2)NC(=O)CSC[C@@H](C(=O)NCC(N)=O)NC(=O)[C@H](CO)NC(=O)[C@H](C(C)C)NC(=O)[C@H](CC2CCCCC2)NC(=O)[C@H](CCN)NC(=O)[C@@H](CC(C)C)NC(=O)[C@H](C)N(C)C(=O)[C@H](C(C)C)NC(=O)[C@H](Cc2ccc(-c3ccccc3)cc2)NC1=O [Compound 1879] ({CH2CO}-[Phe(3-COOH)][Phe(4-COOH)]DWL[Bip]V[NMeA][dL][Dab][Cha]VSCG-NH2; thioether N-14)
